The target in series [1] is T1, ACLY (Homo sapiens, UniProt P53396).
T1 construct: His; made in house; host or cells: Escherichia coli BL21(DE3)
T1 sequence (P53396 1-1101): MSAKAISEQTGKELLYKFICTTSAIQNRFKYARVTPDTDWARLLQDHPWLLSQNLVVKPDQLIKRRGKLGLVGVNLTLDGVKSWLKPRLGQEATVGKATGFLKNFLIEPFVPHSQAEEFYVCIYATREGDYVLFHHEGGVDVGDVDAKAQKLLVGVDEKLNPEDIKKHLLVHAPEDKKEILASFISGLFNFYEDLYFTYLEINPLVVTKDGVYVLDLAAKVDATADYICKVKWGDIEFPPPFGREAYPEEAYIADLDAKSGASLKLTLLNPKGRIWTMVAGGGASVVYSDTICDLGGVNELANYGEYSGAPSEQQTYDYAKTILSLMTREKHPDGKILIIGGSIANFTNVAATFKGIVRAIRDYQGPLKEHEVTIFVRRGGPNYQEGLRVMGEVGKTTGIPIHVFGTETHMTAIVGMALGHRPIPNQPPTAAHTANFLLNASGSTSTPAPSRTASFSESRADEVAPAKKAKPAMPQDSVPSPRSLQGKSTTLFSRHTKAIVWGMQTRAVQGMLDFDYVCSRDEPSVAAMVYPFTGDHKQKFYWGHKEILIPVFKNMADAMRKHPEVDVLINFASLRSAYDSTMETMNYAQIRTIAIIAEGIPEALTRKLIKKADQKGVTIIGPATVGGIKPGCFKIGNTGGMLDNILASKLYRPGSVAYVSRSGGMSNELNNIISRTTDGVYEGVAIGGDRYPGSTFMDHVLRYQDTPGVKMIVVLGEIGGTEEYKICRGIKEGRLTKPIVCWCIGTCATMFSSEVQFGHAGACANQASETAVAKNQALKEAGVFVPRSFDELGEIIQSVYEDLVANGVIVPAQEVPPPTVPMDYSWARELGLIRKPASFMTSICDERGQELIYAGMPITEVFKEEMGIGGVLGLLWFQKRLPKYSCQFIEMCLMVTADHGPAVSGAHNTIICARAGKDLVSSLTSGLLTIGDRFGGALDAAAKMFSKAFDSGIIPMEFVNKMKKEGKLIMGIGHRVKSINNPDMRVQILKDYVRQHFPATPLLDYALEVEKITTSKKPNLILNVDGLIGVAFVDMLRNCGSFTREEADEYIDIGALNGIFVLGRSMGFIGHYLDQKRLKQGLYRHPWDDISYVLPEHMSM
Description: ACLY enzymatic inhibition assay (ADP-Glo Kinase Assay).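 As to all read-outs here: purified recombinant His-tagged human ACLY, compounds preincubated with enzyme 15 min, then ADP formed measured as luciferase luminescence after ADP-Glo reagent depletes leftover ATP.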 Type of series: biochemical. The following applies: for IC50: concentration-response curves; for inhibition rate: preliminary screening, concentration of 10 µm.

Series [2] is described as follows: Cell-free aggregation assay (DMR, Epic BT system). Format: physicochemical. The following applies: for critical aggregation concentration (CAC): reaction buffer, DMR responses at a fixed time. As to the method: The aggregation assay was performed using an Epic BT system (Corning, NY, USA). Reaction buffer (30 μL) was aliquoted in an Epic 384-well microplate (Corning, NY, USA) and equilibrated for 1 h. Then 10 μL compound solution was added and the microplate was placed on the Epic reader. Dynamic mass redistribution (DMR) signals were recorded for 1 h.

Series [3] has as its target T1, ACLY. Nature of the series: Thermal shift assay (Sypro Orange). The following applies: DMSO control 54.5 °C. Type of series: binding. On the procedure:
The thermal shift assay was conducted in a real-time PCR machine (Bio-Rad, Hercules, CA, USA). Sypro Orange fluorescent dye was used to monitor protein folding/unfolding. Purified ACLY and compound solutions were preincubated in low-profile PCR tubes for 15 min at room temperature, and then Sypro Orange was added and incubated for another 15 min on ice. The total volume was 20 μL. The final concentration of ACLY was 1.45 μM and Sypro Orange was 12.5×. The PCR tubes were heated from 25 to 90 °C at a heating rate of 0.5 °C/10 s. The fluorescence intensity changes in each well were recorded. Tm (transition midpoint) was read from the melting curve.

Series [4] has as its target T1, ACLY. Description: Western blotting analysis of ACLY thermal stability. Type of series: binding. As to the method:
Purified ACLY was preincubated with compounds or DMSO in tubes at room temperature for 15 min. The final concentration of ACLY was 0.58 μM. Then the solution was aliquoted into 200 μL PCR tubes and heated at the indicated temperature for 3 min. […] The SDS–PAGE samples were prepared in 1× loading buffer. A separation gel (8%) and stacking gel (5%) were used to separate and transfer target proteins onto PVDF membranes (0.45 μm). The membranes were blocked at room temperature for 1 h with a blocking solution (Beyotime, Shanghai, China), followed by addition of a primary antibody at room temperature for another 2 h. HRP-linked IgG was used as the secondary antibody and incubated at room temperature for 1 h. Protein bands were imaged by molecular imager ChemiDoc XRS+ (Bio-rad, Hercules, CA, USA).

Series [5] has as its target T1, ACLY. Description: Enzymatic kinetic studies (Michaelis-Menten, Lineweaver-Burk). Type of series: biochemical. On the procedure: The inhibition profile of herbacetin against ACLY was determined by the Michaelis–Menten equation and Lineweaver–Burk curve. Reaction rates were recorded separately at different concentrations of substrates with various inhibitor concentrations. […] For competitive inhibition, Vmax is constant, Km decreases; for noncompetitive inhibition, Km is constant, Vmax decreases; for uncompetitive inhibition, both Vmax and Km decrease, while Km/Vmax is constant. Ki values could be calculated according to the following equations. [table]

Series [6] concerns mice fed on a high-fat diet. On the set-up: method as in PMID 17383874. The following applies: cited from earlier work.
The target in series [7] is T1, ACLY. The following applies: cited from earlier work.
In series [8] the test system is human ACLY. On the set-up: method as in PMID 30944472. To be noted: cited from earlier work.
[9] abbreviates: natural ACLY inhibitors, discussion, no reference given.

Read-outs that look alike come from different tables or passages of the source.

These results are taken from paper PMC9504748, “Discovery of Flavonoids as Novel Inhibitors of ATP Citrate Lyase: Structure–Activity Relationship and Inhibition Profiles” (International Journal of Molecular Sciences, 2022).

`O=c1c(O)c(-c2cc(O)c(O)c(O)c2)oc2cc(O)cc(O)c12` [compound 89, Myricetin] showed an IC50 in series [1] of 570 ± 30 nM. Besides, the “critical aggregation concentration (CAC)” value in series [2] was 1.82 µM.

For `O=c1c(O)c(-c2ccc(O)cc2O)oc2cc(O)cc(O)c12` [compound 87, Morin], in series [1], the IC50 worked out at 4070 ± 690 nM. For the compound `O=c1cc(-c2ccc(O)c(O)c2)oc2cc(O)c([C@@H]3O[C@H](CO)[C@@H](O)[C@H](O)[C@H]3O)c(O)c12` [compound 14, Isoorientin], in series [1], the IC50 came out at 1860 ± 290 nM. In series [1], `C[C@@H]1O[C@@H](O[C@H]2[C@H](Oc3cc(O)c4c(=O)cc(-c5ccc(O)c(O)c5)oc4c3)O[C@H](CO)[C@@H](O)[C@@H]2O)[C@H](O)[C@H](O)[C@H]1O` [compound 15, Lonicerin] yielded a concentration for half-maximal inhibition (IC50) of 1430 ± 440 nM. On the same count and under the same terms, the value for `Oc1cc(O)c2cc(O)c(-c3ccc(O)c(O)c3)[o+]c2c1` [compound 74, Cyanidin] was 1290 ± 140 nM; that for `O=c1c(O)c(-c2ccc(O)c(O)c2)oc2c(O)c(O)cc(O)c12` [compound 93, Gossypetin] was 310 ± 20 nM. On to `O=C1c2c(O)cc(O)cc2OC(c2ccc(O)c(O)c2)C1O` (centres unmarked) [compound 19, Taxifolin], for which, in series [1], the concentration for half-maximal inhibition (IC50) was 2540 ± 250 nM. `O=c1c(O[C@@H]2O[C@H](CO)[C@H](O)[C@H](O)[C@H]2O)c(-c2ccc(O)c(O)c2)oc2cc(O)cc(O)c12` [compound 6, Hyperoside] registered an IC50 in series [1] of 1530 ± 80 nM. With `C[C@@H]1O[C@@H](Oc2cc(O)c3c(=O)c(O)c(-c4ccc(O)c(O)c4)oc3c2)[C@H](O)[C@H](O)[C@H]1O` [compound 106, 7-(α-L-Rhamnopyranosyloxy)-2-(3,4-dihydroxyphenyl)-3,5-dihydroxy-4H-1-benzopyran-4-one], inhibition in series [1] was half-maximal at 570 ± 90 nM (IC50). In series [1], `O=c1c(O)c(-c2ccc(O)cc2)oc2c(O)c(O)cc(O)c12` [compound 18, Herbacetin] returned an IC50 of 500 ± 80 nM. In series [1], this compound registered an inhibition rate of 96.07%. For the same compound, in series [1] (ratio of IC50 values), the “fold more active compared with kaempferol” value was determined as 20 fold. Besides, the “DMR responses (aggregation state)” value in series [2] (up to 100 μM) is “negligible DMR responses”. Moreover, the “Tm of ACLY” value turned out to be 55.5 °C in series [3] (40 μM herbacetin) and 56.5 °C in series [3] (200 μM herbacetin). In series [4] (200 μM, significant at 52, 57, 60 and 62 °C), the “stability of ACLY at a temperature gradient vs control” value was “more stable”. Besides, the “isothermal dose-response of ACLY stability” value in series [4] (57 °C, different concentrations) was “concentration–dependent effect”. For the same compound, the inhibition constant (Ki) in series [5] (ATP as substrate) worked out at 290 nM; in series [5] (CoA as substrate), 190 nM; in series [5] (citric acid (CA) as substrate), 110 nM. Further, the inhibition pattern result in series [5] (towards CA, ATP and CoA) is “noncompetitive inhibitor”.

In series [1], `O=C(O)[C@H]1O[C@@H](Oc2cc3oc(-c4ccc(O)cc4)cc(=O)c3c(O)c2O)[C@H](O)[C@@H](O)[C@@H]1O` [compound 53, Scutellarin] came in with an IC50 of 3770 ± 260 nM.

In series [1], `COc1cc(-c2oc3cc(O)cc(O)c3c(=O)c2O)ccc1O` [compound 44, Isorhamnetin] registered an IC50 of 49700 ± 14800 nM. Consider `O=c1cc(-c2ccc(O)cc2)oc2cc(O)c(O)c(O)c12` [compound 52, Scutellarein], for which, in series [1], the IC50 stood at 710 ± 60 nM and the inhibition rate was found to be 91.80%.

`COc1ccc(-c2ccccc2)cc1NS(=O)(=O)c1cc(Cl)cc(Cl)c1O` [BMS–303141]: the “plasma cholesterol, triglyceride and glucose levels” value in series [6] was “lowered plasma cholesterol, triglyceride and glucose levels”. In series [1], `O=c1c(O)c(-c2ccc(O)c(O)c2)oc2cc(O)cc(O)c12` [compound 29, Quercetin] came in with an IC50 of 860 ± 50 nM and an inhibition rate of 91.09%. Further, the “fold more active compared with kaempferol” value in series [1] (ratio of IC50 values) is recorded as 10 fold. Besides, the “critical aggregation concentration (CAC)” value in series [2] came out at 6.47 µM.

Take `O=c1cc(-c2ccc(O)cc2)oc2cc(O)cc(O)c12` [compound 21, Apigenin]: inhibition in series [1] was half-maximal at 19100 ± 11600 nM (IC50). As for anthrone, the IC50 in series [7] (setting [9]) was 280 nM. `O=c1c(O)c(-c2ccc(O)cc2)oc2cc(O)cc(O)c12` [compound 30, Kaempferol] registered an IC50 in series [1] of 10200 ± 1070 nM. Consider `O=C(/C=C/c1ccc(O)c(O)c1)O[C@@H]1C[C@](O)(C(=O)O)C[C@@H](OC(=O)/C=C/c2ccc(O)c(O)c2)[C@H]1O` [isochlorogenic acid A], for which the half-maximal inhibitory concentration (IC50) in series [7] (setting [9]) is 100 nM. With `COC(=O)c1cc(Cl)c(O)c(S(=O)(=O)Nc2cc(-c3ccccc3)c(F)cc2F)c1` [NDI–091143], in series [8], the potency result was “nanomolar potency”. In turn, `O=C(O)[C@H]1O[C@@H](Oc2cc(O)c3c(=O)cc(-c4ccc(O)c(O)c4)oc3c2)[C@H](O)[C@@H](O)[C@@H]1O` [compound 5, Luteolin 7-O-glucuronide] yielded a concentration for half-maximal inhibition (IC50) in series [1] of 1470 ± 200 nM. On to `C[C@@H]1C[C@H]2O[C@@H]2/C=C\C=C\C(=O)Cc2c(Cl)c(O)cc(O)c2C(=O)O1` [radicicol], for which, in series [7] (setting [9]), the Ki is 10000 nM. Regarding `O=c1c(O[C@@H]2O[C@H](CO)[C@@H](O)[C@H](O)[C@H]2O)c(-c2ccc(O)c(O)c2)oc2cc(O)cc(O)c12` [compound 20, Isoquercetin], in series [1], the IC50 turned out to be 2140 ± 120 nM. In series [1], `O=c1cc(-c2ccc(O)c(O)c2)oc2cc(O)cc(O)c12` [compound 51, Luteolin] returned an IC50 of 640 ± 130 nM and an inhibition rate of 88.28%. The “activity fold higher than that of apigenin” value in series [1] (ratio of IC50 values) was 30 fold.

As for `O=C(O)CC(O)(C(=O)O)C(O)C(=O)O` (centres unmarked) [Hydroxycitric acid], the results for the inhibitory constant (Ki) in series [7] and in series [7] (setting [9]) were 3000 nM and 300000 nM, respectively.

For `Oc1cc(O)c2c(c1)O[C@H](c1ccc(O)c(O)c1)[C@H](O)C2` [compound 75, Epicatechin], inhibition in series [1] was half-maximal at 31600 ± 9450 nM (IC50). In turn, `Oc1cc(O)c2c(c1)OC(c1ccc(O)c(O)c1)C(O)C2` (centres unmarked) [compound 73, Catechin] displayed an IC50 in series [1] of 23600 ± 19200 nM. Take antimycin: the Ki in series [7] (setting [9]) is 4000 nM.
